In US20110237592A1, “SUBSTITUTED AMIDO PHENOXYBENZAMIDES” (BAYER SCHERING PHARMA AKTIENGESELLSCHAFT, priority 2008, published 2011):

How the values were obtained:
colon cancer = conditions: oral treatment, mouse models, ref. [18]; cited from earlier work
MEK1/2 = conditions: background statement, ref. [17]; cited from earlier work
A375 cells = experiment: A375 proliferation crystal violet (CV) assay; assay type: cell-based; conditions: Homo sapiens, A-375, 96 h, crystal violet staining, 4 days
Description: Alternatively, the cell proliferation was measured by crystal violet (CV) staining: Assay 7
Cultivated human A375 cells were plated out in a density of 1500 cells/measurement point in 200 μl of growth medium (DMEM/HAMS F12 (Biochrom; FG4815) with 10% FBS and 2 mM Glutamine) in a 96-well multititer plate. After 24 hours, the cells from a plate (zero plate) were stained with crystal violet (see below), while the medium in the other plates was replaced by fresh culture medium (200 μl) to which the test substances had been added in various concentrations (0 μM, and in the range 0.3 nM-30 μM; the final concentration of the solvent dimethyl sulphoxide was 0.5%). The cells were incubated in the presence of the test substances for 4 days. The cell proliferation was determined by staining the cells with crystal violet: the cells were fixed by adding 20 μl/measurement point of an 11% glutaraldehyde solution at room temperature for 15 min. After the fixed cells had been washed three times with water, the plates were dried at room temperature. The cells were stained by adding 100 μl/measurement point of a 0.1% crystal violet solution (pH adjusted to pH 3 by adding acetic acid). After the stained cells had been washed three times with water, the plates were dried at room temperature. The dye was dissolved by adding 100 μl/measurement point of a 10% acetic acid solution, and the extinction was determined by photometry at a wavelength of 595 nm. The percentage change in cell growth was calculated by normalizing the measurements to the extinctions of the zero point plate (=0%) and the extinction of the untreated (0 μM) cells (=100%). The IC50 values were determined by means of a 4-parameter fit using the company's own software.

MEK1 = biological target: T1, MEK1 (Homo sapiens, UniProt Q02750); experiment: MEK1 activation kinase assay (Cot1, HTRF); assay type: biochemical; conditions: inhibition of Cot1-mediated activation of GST-MEK1, HTRF
T1 construct: purchased Millipore 14-420
T1 sequence (Q02750 whole entry): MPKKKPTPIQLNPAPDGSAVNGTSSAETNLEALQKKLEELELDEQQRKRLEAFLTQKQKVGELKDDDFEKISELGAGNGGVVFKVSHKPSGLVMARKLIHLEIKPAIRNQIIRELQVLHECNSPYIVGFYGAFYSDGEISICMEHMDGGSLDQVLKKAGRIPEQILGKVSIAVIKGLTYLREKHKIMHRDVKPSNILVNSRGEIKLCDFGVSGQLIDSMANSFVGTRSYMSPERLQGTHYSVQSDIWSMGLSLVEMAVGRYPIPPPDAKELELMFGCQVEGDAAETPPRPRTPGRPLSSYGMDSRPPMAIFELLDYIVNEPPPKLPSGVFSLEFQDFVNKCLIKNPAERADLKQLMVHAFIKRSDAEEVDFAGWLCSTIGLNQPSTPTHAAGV
From the text: The kinase Cot1 activates MEK1 by phosphorylating its activation loop. The inhibitory activity of compounds of the present invention on this activation of MEK1 was quantified employing the HTRF assay described in the following paragraphs.
N-terminally His6-tagged recombinant kinase domain of the human Cot1 (amino acids 30-397, purchased from Millipore, cat. no 14-703) expressed in insect cells (SF21) and purified by Ni-NTA affinity chromatography was used as kinase. As substrate for the kinase reaction the unactive C-terminally His6-tagged GST-MEK1 fusion protein (Millipore cat. no 14-420) was used.
For the assay 50 nl of a 100 fold concentrated solution of the test compound in DMSO was pipetted into a black low volume 384 well microtiter plate (Greiner Bio-One, Frickenhausen, Germany), 3 μl of a solution of 24 nM GST-MEK1 and 166.7 μM adenosine-tri-phosphate (ATP) in assay buffer [50 mM Tris/HCl pH 7.5, 10 mM MgCl2, 2 mM dithiothreitol, 0.01% (v/v) Igepal CA 630 (Sigma), 5 mM β-phospho-glycerol] were added and the mixture was incubated for 10 min at 22° C. to allow pre-binding of the test compounds to the GST-MEK1 before the start of the kinase reaction. Then the kinase reaction was started by the addition of 2 μl of a solution of Cot1 in assay buffer and the resulting mixture was incubated for a reaction time of 20 min at 22° C. […]
The resulting mixture was incubated 2 h at 22° C. to allow the binding of the phosphorylated GST-MEK1 to the anti-GST-XL665 and the Eu-cryptate labelled anti-phospho-MEK 1/2 antibody. Subsequently the amount of Ser217/Ser221-phosphorylated substrate was evaluated by measurement of the resonance energy transfer from the Eu-Cryptate-labelled anti-phospho-MEK antibody to the anti-GST-XL665. Therefore, the fluorescence emissions at 620 nm and 665 nm after excitation at 350 nm was measured in a HTRF reader, e.g. a Rubystar (BMG Labtechnologies, Offenburg, Germany) or a Viewlux (Perkin-Elmer). […]

[1] = currently preferred example compounds

Row | IC50 (A375 cells; [1]) [nM] | SMILES | also measured
1 | – | O=C(NOCC1CC1)c1ccc(F)c(F)c1Nc1ccc(I)cc1Cl [CI-1040] | colon cancer growth in vivo (colon cancer): inhibit colon cancer growth in vivo; IC50 (MEK1/2): low nanomolar range
2 | < 100 | CC(C)(O)C(=O)Nc1cccc(Oc2cc(F)cc(Nc3ccc(I)cc3F)c2C(N)=O)c1 [Example 1.1, 4-Fluoro-2-(2-fluoro-4-iodo-phenylamino)-6-[3-(2-hydroxy-2-methylpropionylamino)-phenoxy]-benzamide] | IC50 (A375 cells): < 1000 nM; IC50 (MEK1): < 100 nM
3 | < 100 | NC(=O)c1c(Nc2ccc(I)cc2F)cc(F)cc1Oc1cccc(NC(=O)CO)c1 [Example 3.1, 4-Fluoro-2-(2-fluoro-4-iodo-phenylamino)-6-[3-(2-hydroxy-acetylamino)-phenoxy]-benzamide] | –
4 | < 100 | COCC(=O)Nc1cccc(Oc2cc(F)cc(Nc3ccc(I)cc3F)c2C(N)=O)c1 [Example 3.2, 4-Fluoro-2-(2-fluoro-4-iodo-phenylamino)-6-[3-(2-methoxy-acetylamino)-phenoxy]-benzamide] | –
5 | < 100 | CSCC(=O)Nc1cccc(Oc2cc(F)cc(Nc3ccc(I)cc3F)c2C(N)=O)c1 [Example 3.3, 4-Fluoro-2-(2-fluoro-4-iodo-phenylamino)-6-[3-(2-methylsulfanyl-acetylamino)-phenoxy]-benzamide] | –
6 | < 100 | NC(=O)c1c(Nc2ccc(I)cc2F)cc(F)cc1Oc1cccc(NC(=O)C2CCOCC2)c1 [Example 3.5, Tetrahydro-pyran-4-carboxylic acid {3-[2-carbamoyl-5-fluoro-3-(2-fluoro-4-iodo-phenylamino)-phenoxy]-phenyl}-amide] | –
7 | < 100 | CC(O)C(=O)Nc1cccc(Oc2cc(F)cc(Nc3ccc(I)cc3F)c2C(N)=O)c1 (stereo not drawn) [Example 3.6, 4-Fluoro-2-(2-fluoro-4-iodo-phenylamino)-6-[3-(2-hydroxy-propionylamino)-phenoxy]-benzamide] | –
8 | < 100 | NC(=O)c1c(Nc2ccc(I)cc2F)cc(F)cc1Oc1cccc(NC(=O)CN2CCOCC2)c1 [Example 3.7, 4-Fluoro-2-(2-fluoro-4-iodo-phenylamino)-6-[3-(2-morpholin-4-yl-acetylamino)-phenoxy]-benzamide] | –
9 | – | CN1CCC(C(=O)Nc2cccc(Oc3cc(F)cc(Nc4ccc(I)cc4F)c3C(N)=O)c2)CC1 [Example 3.17, 1-Methyl-piperidine-4-carboxylic acid {3-[2-carbamoyl-5-fluoro-3-(2-fluoro-4-iodo-phenylamino)-phenoxy]-phenyl}-amide] | IC50 (MEK1): < 100 nM
10 | < 100 | NC(=O)c1c(Nc2ccc(I)cc2F)cc(F)cc1Oc1ccc2oc(=O)[nH]c2c1 [Example 4.1, 4-Fluoro-2-(2-fluoro-4-iodo-phenylamino)-6-(2-oxo-2,3-dihydro-benzooxazol-5-yloxy)-benzamide] | IC50 (MEK1): < 100 nM
11 | – | NC(=O)c1c(Nc2ccc(I)cc2F)cc(F)cc1Oc1cccc(NC(=O)C(F)(F)F)c1 [Example 5.1, 4-Fluoro-2-(2-fluoro-4-iodo-phenylamino)-6-[3-(2,2,2-trifluoro-acetylamino)-phenoxy]-benzamide] | IC50 (A375 cells): < 1000 nM
